The values below come from patent US20150005236A1, “USE OF BETA-NERVE GROWTH FACTOR FOR INDUCING OVULATION IN MAMMALS” (INSTITUT NATIONAL DE LA RECHERCHE AGRONOMIQUE, priority 2012, published 2015).

Several values for one entry are separate records, joined by “and”; a condition that tells them apart may be missing. Equal values may be shown once. Marks after values point to notes of the source that are not given here.

In assay [1] the test system is female alpacas. The experiment in a line: Induction of ovulation in alpacas (transrectal ultrasonography, plasma progesterone RIA). Format: in vivo, alpaca. The note with it: for CL diameter: corpus luteum on day 8 following i.m. treatment; for CL diameter / Progesterone conc.: mean ± sem; for corpus lutea detected, % of alpacas: day 8 following treatment; for corpus lutea detected, % of alpacas / dominant follicle absent, % of female alpacas: n=5/group; for Progesterone conc.: plasma, day 8 following i.m. treatment, animals that did not ovulate excluded; for dominant follicle absent, % of female alpacas: ultrasonography 28-30 h following treatment. As to the method: The emergence of dominant follicles was synchronised with the 0.8 ml (200 μg) prostaglandin F2α (Estrumate®, Intervet) i.m. followed by 1 ml (4 μg) of Buserelin (Receptal®, Intervet) i.m. 24 h later, then luteolysis was induced 11 days after induced ovulation with 0.8 ml Estrumate®.
To determine the presence of a dominant follicle, females were restrained in sternal recumbency and examined by transrectal ultrasonography using an Aloka SSD-500 scanner with 7.5 MHz linear array transducer (Aloka Co., Japan). The ovaries of […] were scanned. Females with a newly emerged dominant follicle of 6-10 mm in diameter were randomly assigned to receive 1 of 4 treatments: (1) 1 ml 0.9% saline in, (n 5), (2) 1 ml (4 μg) Receptal® (Intervet) i.m (n=5), (3) 2 ml alpaca's seminal plasma i.m. collected as described above for Experiment ˜1 (n=5), (4) 1 mg recombinant active human β-NGF protein (Sino Biological, Japan) Lm. (n=5).
Animals were examined by transrectal ultrasonography 28-30 h following treatments to detect ovulation. Ovulation was defined as the absence of the dominant follicle that was observed during the previous scan at the time of treatment. Ultrasonography was also repeated 8 days following treatment, to confirm ovulation and determine the size of the corpus luteum.
(§1) Female alpacas were cannulated and jugular venous blood samples (5 ml) were collected for detection of luteinising hormone immediately before treatment, every 30 min for 4 h, then every 1 h for 4 h and finally at 12 h post-treatment. Jugular venous blood samples (5 ml) were also collected on day 8 at the time of ultrasonography for detection of plasma progesterone. Samples were placed in heparinised tubes, centrifuged at 2000×g for 10 min, the plasma decanted and stored at −20° C. until analysis.
(§2) Plasma LH concentration were determined using a RIA. Plasma progesterone concentrations were determined using a commercial double antibody RIA kit (Coat-a-Count).
International, Hemel Hempstead, UK) with post-hoc comparisons using the least significant difference (LSD) test where appropriate. Far all analyses P<0.05 was considered significant.
In this experiment, female alpacas (n 5/group) were administered i.m. with (1) 1 ml 0.9% saline, (2) 1 ml of the GnRH agonist Receptal® (3) 2 ml alpaca seminal plasma, or (4) 1 mg human β-NGF. Ovulation was detected by transrectal ultrasonography […] following treatment and confirmed by plasma progesterone concentrations.

The test system of assay [2] is female alpacas. The experiment in a line: LH concentration in peripheral blood of female alpacas (RIA). It is filed as in vivo, alpaca. The note with it: for LH concentration in peripheral blood: 12 hours after i.m. injection, versus saline; for peak of LH, time after injection: i.m. injection, peripheral blood. As to the method: as §1, §2
The evolution of the concentration of LH in peripheral blood was assessed for 12 hours after the injections.

The next assay deals with female rabbits. The experiment in a line: Induction of ovulation in female rabbits. It is filed as in vivo, rabbit. The note with it: for Ovulation (%): ovulation frequency, i.m. injection. As to the method: A herd of 83 female rabbits of proven fertility was used in this experiment.
The female rabbits were synchronized by an injection of eGG 48 hours before insemination. Then they were inseminated with a mixture of semen from several males. The same mixture was used for all females.
The female rabbits were killed 48 hours after insemination. The ovaries were collected to proceed to counting the corpora lutea, pre-ovulatory follicles of diameter higher than 1 mm and atretic follicles, and to identify potential pseudopregnant females. The oviducts were infused in order to count oocytes and embryos and to evaluate the developmental stage of the latter (number of blastomeres of the embryo).
The results were analysed with the software SAS using a fixed-effects variance analysis, taking into account the fixed effect of the treatment (4 levels: GnRH, β-NGF, PS and saline).

The next assay concerns mouse GnRH neurons. The experiment in a line: Calcium imaging of primary culture of GnRH neurons. It is filed as cell-based. An excerpt: A model of primary culture of GnRH neurons has been developed from explants of olfactory placodes of mouse embryos (Constantin et al., 2009). This model has three stages of in vitro development: from 1 to 3 days, intra-explant migration, corresponding to an in vivo intranasal migration; from 3 to […] days, out-of explant migration, corresponding to an in vivo intracerebral development; from 7 to 15 days, occurrence of the pulsatile secretion, corresponding to neuronal and network maturation.
This experiment was carried out between 7 and 15 days of in vitro development corresponding to a stage of mature GnRH neurons having a pulsatile GnRH secretion.
Embryos were obtained from timed pregnant animals. Nasal pits of embryonic d 11.5 staged Swiss mice were isolated under aseptic conditions and refrigerated for 1 h in Gey's balanced salt solution (Eurobio, Les Ulis, France) enriched with glucose (Sigma-Aldrich Corp., St. Louis, Mo.). Nasal explants were adhered onto coverslips by a chicken plasma (local source)/thrombin (Sigma-Aldrich) clot. […]
These variations were measured by “time lapse” imaging in the primary culture of GnRH neurons. A quantitative analysis was carried out for single neurons but also overall for a group of neurons constituting part of the network. […]
Calcium Green-1 was visualized using an inverted microscope (DM-IRB; Leica. Microsystems GmbH, Wetzlar, Germany), through a ×20 fluorescence objective, and acquired using a cooled intensified charge-coupled device camera (CoolSNAP fx; Rapper Instruments, Photometrics, Tucson, Ariz.). Experiments were piloted by Metafluor (Molecular Devices, Downingtown, Pa.), controlling the shutter and the acquisition (every 20 sec for 3 h), Excitation wavelengths were provided through a medium-width excitation bandpass filter at 465-495 nm, and emission was monitored through a 40-nm bandpass centered on 535 nm. Fluctuations in [Ca2+]i were analyzed a posteriori with Metafluor software. […] Calcium Green-1 fluorescence intensity was plotted and analyzed with Excel (Microsoft Corp., Redmond, Wash.). […]

Assay [3] has as its system glial cells associated with GnRH neurons. The experiment in a line: Immunohistochemistry of the relations between GnRH neurons and glial cells. It is filed as cell-based, mouse. The conditions noted are these: 20 min application at 75 nM, then K+ stimulation; not in control conditions. As to the method:
An immunohistochemical approach was used to characterize the cells present in the culture, using anti-GnRH antibody for the GnRH neurons, anti-S100b antibody for the glial cells and anti-P75 antibody (P75 is a NGF-specific receptor). The analysis was carried out by confocale microscopy.
Nasal explants were fixed in 4% formaldehyde [45-60 min, rinsed in PBS (3×10 min)], blocked (1 h, 10% normal goat serum, 0.3% Triton X-100, and 0.1% sodium azide), rinsed in PBS (3×8 min), and incubated overnight in anti-GnRH-1 (1:3000, SW-1). Antibodies were diluted in PBS containing 10% normal goat serum, 0.3% Triton X-100, and 0.1% sodium azide. The next day, the explants were rinsed in PBS (3×8 min), incubated in secondary antibody ant rabbit Alexa 546 (1:500, 1 h; Molecular Probes, Inc., Eugene Oreg.) and rinsed in PBS (4×8 min). Explants incubated with fluorescent dies were mounted with Vector Shield (Vector Laboratories).
The relations between GnRH neurons and glial cells have been analyzed by immunohistochemistry after 20 min of recording in calcic imaging, for the control and after 20 min of application of β-NGF at 75 nM in the culture medium, and after K^+ stimulation. The glial cells retract after K^+ stimulation in the presence of β-NGF, but not in control conditions.

Setting [4] is: 48 hours after insemination, estimated mean values.

In the case of `CCNC(=O)[C@@H]1CCCN1C(=O)[C@H](CCCNC(=N)N)NC(=O)[C@H](CC(C)C)NC(=O)[C@@H](COC(C)(C)C)NC(=O)[C@H](Cc1ccc(O)cc1)NC(=O)[C@H](CO)NC(=O)[C@H](Cc1c[nH]c2ccccc12)NC(=O)[C@H](Cc1cnc[nH]1)NC(=O)[C@@H]1CCC(=O)N1` [Receptal, Buserelin, reference compound], in the assay with female alpacas [1], the CL diameter is given as 9.3 ± 1.49^a mm; the “corpus lutea detected, % of alpacas” value amounted to 80%; the Progesterone conc. is on record as 4.01 ± 0.897^b ng/ml; the “dominant follicle absent, % of female alpacas” value amounted to 80%. In the assay on female alpacas [2], the “LH concentration in peripheral blood” value is “significant increase” and the “peak of LH, time after injection” value amounted to 3 h.
For “GnRH: 0.2 ml of Fertagyl® containing 20 μg of GnRH (Gonadotrophine Releasing Hormone), positive control (QHWSYGLRPG; Gonadoliberin-1; UniProt P01148 24-33, looked up)”, in the assay with female rabbits (setting [4]), the Collected embryos is recorded as 12.09^a, the “Corpora lutea (number by injected female rabbit)” value was 13.82^a and the Haemorrhagic follicles is reported as 1.36^a. Also, in the assay on female rabbits, the “Ovulation (%)” value was 100% and 100^a %.
On to beta-Nerve Growth Factor [β-NGF], for which, in the assay with female alpacas [1], the CL diameter was 10.3 ± 1.03^a mm; the “corpus lutea detected, % of alpacas” value worked out at 80%; the Progesterone conc. was 3.28 ± 0.681^b ng/ml; the “dominant follicle absent, % of female alpacas” value stood at 80%. In addition, the “Ovulation (%)” value in the assay on female rabbits was 25% and 25.0^b %. The “percent of synchronization events involving more than 70% of the recorded GnRH neurons” value in the assay with mouse GnRH neurons (75 nM in the culture medium) is “increase”. Besides, the “synchronization of calcic events between GnRH neurons” value in the assay on mouse GnRH neurons (20 min after application at 75 nM) is recorded as “increased”. Besides, the “fold decrease in average time between two calcium events” value in the assay with mouse GnRH neurons (20 min after application at 75 nM in the culture medium, versus control (about 15 s)) is given as 3. The “glial cells after K+ stimulation” value in assay [3] is reported as “retract”. For the same molecule, the “time to LH surge after treatment” value with female alpacas [2] (1 mg i.m.) is at most 8 h. In addition, in the assay on female alpacas [2], the “LH concentration in peripheral blood” value is recorded as “significant increase” and the “peak of LH, time after injection” value was determined as 3 h.
